According to patent US12302928B2, “Application of acylated derivative of amino acid in preparation of animal feed additive” (ANIPHA TECHNOLOGIES PTY LTD, priority 2018, dated 2025):

How the values were obtained:
[1] = test system: nephrotoxicity caused by cephalosporin; conditions: rabbit; 150 mg/kg; cephalosporin at a dose of 150 mg/kg; cited from earlier work
[2] = test system: convulsion caused by bicuculline or corazol; conditions: cited from earlier work
[3] = test system: glutamate decarboxylase; conditions: cited from earlier work
[4] = after subcutaneous injection; cited from earlier work
[5] = test system: grass carps; test: Breeding test B4: use in fish feed (growth of grass carps); assay type: in vivo
Procedure: The test fishes used were grass carps, and the test was carried out in the aquaculture farm of the test field of Guangzhou Insighter. Healthy, lively, and uniform grass carp fingerlings were fed in large cages for 4 weeks before being used for formal breeding test. The experimental system was a small floating cage. Both the small cage and the temporary cage were placed in a 3500 m^2 pond of the test field, the depth of the pond was about 1.5 m, and the water of the pond was fully aerated in the bottom of the pond. During the test, 360 grass carps that were hungry for 1 day were randomly divided into 9 groups, with 4 replications per group and 10 grass carps per replication. All of the grass carps were weighed, and then were randomly placed in 36 cages and fed with different test feeds. The test feeds were self-prepared, and 150 ppm of different acylated derivatives of the aminobutyric acid were added into the basal feed for different test groups, respectively. The test groups were the control group (group I) and the test groups IIIX, respectively. The basal daily ration was only given for the control group, and 150 ppm of different acylated derivatives of the aminobutyric acid were added into the basal daily ration for the test groups IIIX.
The test adopted time-limited artificial feeding, and the feeding amount was adjusted once a week. The feeding rate of the control group and the feeding rate of the test groups (according to the initial body weight) were exactly the same, and the grass carps were fed twice a day (7:30 and 15:00). The test period was 8 weeks.

[6] = test system: Jingbai laying hens; test: Breeding test B2: effect on the production performance of laying hens; assay type: in vivo; conditions: 150 ppm in basal daily ration, 158 days
Description: The test adopted a single-factor random design. 1,080 147-day-old Jingbai laying hens with similar body weight were selected and randomly divided into 9 groups, with 6 replications per group and 20 Jingbai laying hens per replication. The poultry houses and utensils were sterilized before the test. During the test period, the Jingbai laying hens were cage cultured in the same poultry house under the same feeding and management conditions. The basal daily ration was mainly corn-soybean meal, and no other antioxidant ingredients and growth promoters were added additionally during the entire feeding process. The test groups were the control group (group I) and the test groups II˜IX, respectively. The basal daily ration was only given for the control group, and 150 ppm of different acylated derivatives of the aminobutyric acid were added into the basal daily ration for the test groups II˜IX. The pre-feeding period was 10 days, and the test period was 158 days. The test laying hens were free to drink water and eat feed, and were fed twice a day. The test takes each repetition as a unit, and records the total egg number, the egg production, and the feed intake every day, and calculates the egg production rate (EPR), the average daily feed intake (ADFI, g/d), the egg weight (EW, g) and the feed-to-egg ratio (FER) of the laying hens during the entire test. The formula for calculation was as follows: Egg production rate (%)=average daily total egg number/number of laying hens×100; Egg weight (g)=average daily total egg weight/average daily total egg number; Feed-to-egg ratio=average daily feed intake/egg weight.

[7] = test system: yellow-feathered broilers; test: Breeding test B3: effect on the production performance of broilers; assay type: in vivo; conditions: 300 ppm in basal daily ration, 20 days
Description: The test adopted a single-factor random design. 1,080 1-day-old yellow-feathered broilers with similar body weight and the average weight of 50 g were selected and randomly divided into 9 groups, with 6 replications per group and 20 yellow-feathered broilers (half of male and female) per replication. The poultry houses and utensils were sterilized before the test. During the test period, the yellow-feathered broilers were housed in the same poultry house under the same feeding and management conditions. The basal daily ration was mainly corn-soybean meal, and no other antioxidant components and growth promoters were added additionally during the entire feeding process. The test groups were the control group (group I) and the test groups II˜IX, respectively. The basal daily ration was only given for the control group, and 300 ppm of different acylated derivatives of the aminobutyric acid were added into the basal daily ration for the test groups II˜IX.
The test period was 20 days. The test broilers were free to drink water and eat feed, and were fed twice a day. With each repetition as a unit, the test broilers were weighed at the age of 21 days (stopping feed for 12 hours, without stopping water), the feed consumption of test broilers were recorded, and the average daily feed intake (ADFI, g/d*each broiler), the average daily gain (ADG, g/d*each broiler) and feed conversion ratio (FCR) were calculated for each of the test groups. The formula for calculation was as follows: Feed conversion ratio (FCR)=average daily feed intake/average daily gain.

[8] = test system: Duroc×Landrace×Yorkshire cross-bred bacon-type pigs; test: Breeding test B1: effect on the production performance of pigs; assay type: in vivo; conditions: 400 ppm in basal daily ration, 28 days
Description: 270 65-day-old Duroc×Landrace×Yorkshire cross-bred bacon-type pigs with similar body weight were randomly divided into 9 groups, with 3 replications per group and 10 pigs (half of male and female) per replication. The pigpens and utensils were sterilized before the test. During the test period, the test pigs were free-stall housed in the same pigpen under the same feeding and management conditions. During the test period, the test pigs were free to drink water and eat feed, and test pigs were fed twice a day. The test groups were the control group (group I) and the test groups II˜IX, respectively. Wherein the basal daily ration was only given for the control group, and 400 ppm of different acylated derivative of the aminobutyric acid was added into the basal daily ration for the test groups II˜IX.
No other antioxidant ingredients and growth promoters were added for the test groups during the entire feeding process. The test period was 28 days, with each repetition as a unit, the test pigs were weighed at the age of 93 days without stopping water and feed for 12 hours; the average daily feed intake (ADFI, g/d*each pig), the average daily gain (ADG, g/d*each pig) and the feed conversion ratio (FCR) were calculated for each of the test groups. The formula for calculation was as follows: Average daily feed intake=(total amount of feed−remaining amount of feed)/(number of days of test×number of pigs per repetition); Average daily gain=(average body weight at the end of the test−average body weight at the beginning of the test)/number of days of test; Feed conversion ratio=average daily feed intake/average daily gain.

## O=C(O)CCCNC(=O)c1ccccc1 [N-benzoyl-γ-aminobutyric acid]
[1]
  protection of the kidney from cephalosporin nephrotoxicity: can significantly protect the kidney
[2]
  antagonism of convulsion: can antagonize the convulsion
[3]
  inhibition of glutamate decarboxylase: can inhibit a glutamate decarboxylase
[4]
  time to maximum blood concentration: ≤ 5 min
[5]; 150 ppm in basal feed, 8 weeks
  (FCR): 1.79
  Average final weight: 721 g
[5]; po, 1344 h, read-out: Weight gain rate
  change in vivo at 150 ppm, 150 µg/mL: 81.6%
[6]
  ADFI (average daily feed intake): 158 g/day
  EW (egg weight): 54.92 g
[6]; 147-day-old laying hens
  EPR (egg production rate): 86.7%
[7]
  ADG (average daily gain): 14.13 g/d * each broiler
[7]; 1-day-old broilers
  ADFI (average daily feed intake): 27.56 g/d * each broiler
[7]; ADFI/ADG
  FCR (feed conversion ratio): 1.95
[8]; 65-day-old pigs
  ADFI (average daily feed intake): 1837 g/d * each pig
  ADG (average daily gain): 699 g/d * each pig
[8]; ADFI/ADG
  FCR (feed conversion ratio): 2.628
